The text below walks through data of PubChem BioAssay (NCI).

Among the test systems are 786-0 renal; KM12 colon; HOP-62 NSCLC; NCI-H522 lung; MDA-MB-435; HOP-92 NSCLC; OVCAR-4 ovarian; SN12C renal; K-562 leukemia; SK-MEL-28 melanoma.
Common to all, as to assay: NCI tumour cell line growth inhibition, 48 h

Several values for one entry are separate records, joined by “and”; a condition that tells them apart may be missing. Identical values can stand only once.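 These data come from cells grown in 96-well plates and exposed to compound for 48 hours at five concentrations. The concentration for 50% growth inhibition is given as GI50. TGI denotes the concentration required for complete inhibition of growth.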 A value given as a limit tells only on which side of the number the result lay.

As to `COc1ccc2nc3cc(Cl)ccc3c(NCCN)c2c1`, the GI50 in the assay with 786-0 renal is 1.63 µM; in the assay with KM12 colon, 1.67 µM; in the assay with HOP-62 NSCLC, 1.58 µM; with NCI-H522 lung, 1.73 µM; with MDA-MB-435 it was 1.76 µM; with HOP-92 NSCLC it was 1.47 µM. Besides, the GI50 with OVCAR-4 ovarian is 1.61 µM. Further, the TGI in the assay with 786-0 renal was 3.05 µM; in the assay with KM12 colon it was 3.46 µM; with HOP-62 NSCLC it was 3.03 µM; in the assay on NCI-H522 lung it was 3.56 µM; in the assay with MDA-MB-435, 3.36 µM; with HOP-92 NSCLC, 2.95 µM. Further, in the assay with OVCAR-4 ovarian, the TGI worked out at 3.02 µM.
Regarding `CC1(C)N=C(N)N=C(N)N1c1ccc(OCc2ccc(S(=O)(=O)F)c(Cl)c2)c(Cl)c1`, the GI50 in the assay with 786-0 renal was 0.814 µM; in the assay with SN12C renal it was 0.558 µM; in the assay on KM12 colon it was 3.35 µM; with HOP-62 NSCLC, 7.93 µM; with NCI-H522 lung, 3.28 µM; in the assay with MDA-MB-435 it was 0.558 µM. The GI50 in the assay with K-562 leukemia was 0.448 µM; in the assay with OVCAR-4 ovarian, 17.5 µM; in the assay with SK-MEL-28 melanoma, 8.61 µM. Also, the TGI in the assay on 786-0 renal, with SN12C renal, in the assay on KM12 colon, in the assay with HOP-62 NSCLC, in the assay with NCI-H522 lung and in the assay on MDA-MB-435 was above 100 µM throughout. The TGI with K-562 leukemia, in the assay on OVCAR-4 ovarian and with SK-MEL-28 melanoma was above 100 µM throughout.
For the compound `C=C(C)C1CCC2(C(=O)O)CCC3(C)C(CCC4C5(C)CCC(OC(=O)NCc6ccccc6)C(C)(C)C5CCC43C)C12` (stereo unspecified), the GI50 is 3.98 µM with 786-0 renal; 7.11 µM in the assay on SN12C renal; 2.23 µM in the assay on KM12 colon; 3.87 µM with HOP-62 NSCLC; 0.15 µM with NCI-H522 lung; 5.33 µM in the assay on MDA-MB-435. For the same compound, the values for the GI50 in the assay on K-562 leukemia, in the assay with OVCAR-4 ovarian and with SK-MEL-28 melanoma were 1.67 µM, 3.8 µM and 1.08 µM, respectively. Further, the TGI in the assay on 786-0 renal is above 100 µM; in the assay with SN12C renal, above 100 µM; in the assay on KM12 colon, 12.2 µM; with HOP-62 NSCLC it was above 100 µM; in the assay on NCI-H522 lung, 10.4 µM; in the assay with MDA-MB-435, above 100 µM. Also, the TGI in the assay with K-562 leukemia, with OVCAR-4 ovarian and in the assay on SK-MEL-28 melanoma was above 100 µM in each case.
For `CO[C@H]1C=C[C@@]23c4cc5c(cc4CO[C@]2(O)CN(C)[C@H]3C1)OCO5`, the TGI in the assay on 786-0 renal, in the assay with SN12C renal, in the assay on KM12 colon, with NCI-H522 lung, in the assay with MDA-MB-435 and with HOP-92 NSCLC was above 100 µM throughout. Moreover, the TGI in the assay with K-562 leukemia, in the assay with OVCAR-4 ovarian and with SK-MEL-28 melanoma was above 100 µM throughout.
Take `O=C(O)[C@@H]1CCCCN1Cc1cc2cc3c(cc2c2cc(OCc4ccccc4)ccc12)OCO3`: the GI50 with 786-0 renal was 18.9 µM; with SN12C renal, 2 µM; in the assay with KM12 colon, 4.24 µM; in the assay on HOP-62 NSCLC it was 16.1 µM; with NCI-H522 lung, 4.89 µM; in the assay on MDA-MB-435, 3.4 µM. Moreover, the GI50 in the assay on HOP-92 NSCLC was 14.7 µM; with K-562 leukemia, 36.7 µM; in the assay with SK-MEL-28 melanoma, 2.21 µM. The TGI was found to be 44.9 µM in the assay on 786-0 renal; 7.8 µM in the assay on SN12C renal; 25.5 µM in the assay with KM12 colon; 31.6 µM in the assay on HOP-62 NSCLC; 18.4 µM in the assay on NCI-H522 lung; 17.5 µM in the assay on MDA-MB-435. The TGI is 41.5 µM with HOP-92 NSCLC, above 100 µM in the assay on K-562 leukemia and 7.28 µM with SK-MEL-28 melanoma.
As to `COc1ncc(-c2ccc3ncnc(Nc4cccc(Cl)c4)c3c2)cc1NS(=O)(=O)CCN1CCOCC1`, the GI50 in the assay with 786-0 renal is 0.298 µM; in the assay with SN12C renal, 0.293 µM; in the assay on KM12 colon, 1.81 µM; in the assay with NCI-H522 lung, 0.402 µM; with MDA-MB-435, 0.534 µM; in the assay on OVCAR-4 ovarian, 1.14 µM. Moreover, the TGI with 786-0 renal is above 100 µM; with SN12C renal, above 100 µM; in the assay on KM12 colon, above 100 µM; in the assay with NCI-H522 lung, 8.6 µM; with MDA-MB-435, above 100 µM; in the assay on OVCAR-4 ovarian, above 100 µM.
With `C/C=C(\C)CC/C=C/CO[Si](C)(C)C(C)(C)C`, the TGI in the assay on 786-0 renal, in the assay with SN12C renal, with KM12 colon, in the assay on HOP-62 NSCLC, in the assay on NCI-H522 lung and with MDA-MB-435 was above 100 µM in each case. The TGI with K-562 leukemia, in the assay on OVCAR-4 ovarian and with SK-MEL-28 melanoma was above 100 µM each time.
Take `CNc1nc(N)c(N=O)c(Nc2ccc(Br)cc2)n1`: the TGI in the assay on 786-0 renal, with SN12C renal, with KM12 colon, in the assay with HOP-62 NSCLC, in the assay with NCI-H522 lung and in the assay with MDA-MB-435 was above 100 µM in each case. The TGI with K-562 leukemia and with SK-MEL-28 melanoma was above 100 µM each time.
Consider `COc1ccc(/C=C\c2cc(OC)c(OC)c(OC)c2)cc1OC(=O)NCCN(C)C`, for which the TGI was above 34.8 µM in the assay on 786-0 renal; above 100 µM with HOP-62 NSCLC; 0.000483 µM in the assay with NCI-H522 lung; below 0.0001 µM in the assay with MDA-MB-435; 0.00065 µM and < 0.0393 µM with HOP-92 NSCLC; 23.7 µM with K-562 leukemia. The same compound had a TGI in the assay with SK-MEL-28 melanoma of 43.1 µM. For the same compound, the GI50 with KM12 colon and with SK-MEL-28 melanoma was below 0.0001 µM in each case.
`Cn1c2ccccc2c2c3[nH]c(=O)[nH]c(=O)c3c3c4ccccc4n(C)c3c21`: the GI50 in the assay on 786-0 renal is 1.88 µM; in the assay on SN12C renal, 4.21 µM; in the assay on KM12 colon, 2.51 µM; in the assay on HOP-62 NSCLC it was 2.03 µM; in the assay on NCI-H522 lung, 1.9 µM; with MDA-MB-435, 3.05 µM. The GI50 in the assay with HOP-92 NSCLC is 3.4 µM; in the assay with SK-MEL-28 melanoma, 4.5 µM. Further, the TGI is 4.34 µM in the assay with 786-0 renal; above 100 µM in the assay with SN12C renal; above 100 µM with KM12 colon; 5.83 µM in the assay with HOP-62 NSCLC; 12.8 µM in the assay on NCI-H522 lung; above 100 µM in the assay on MDA-MB-435. Also, the values for the TGI with HOP-92 NSCLC and with SK-MEL-28 melanoma were 14.6 µM and above 100 µM, respectively.
